Measurements as given in US20220071952A1, “METHODS OF TREATING AND PREVENTING HEPATOTOXICITY” (Natreon, Inc., priority 2020, published 2022).

Columns and labels:
[1] = system: CCl4-induced hepatotoxicity in mice; experiment: Synergistic hepatoprotective activity of DBPs against CCl4-induced hepatotoxicity (Example IV); details: CCl4 1 ml/kg, Ursocol 250 mg/kg b.w., mean ± SEM, n=4
[2] = system: alcohol-induced hepatotoxicity in mice; experiment: Synergistic hepatoprotective activity of DBPs against alcohol-induced hepatotoxicity (Example IV); details: for ACP / ALP / ALT / AST / Total Protein: alcohol 5 g/kg, Ursocol 250 mg/kg b.w., mean ± SEM, n=4
Protocol: Hepatotoxicity was induced by oral administration of alcohol (ethanol: 5 g/kg) from stock 400 mg/ml twice daily for 15 days.
3-OH-DBP and 3,8-(OH)2-DBP were each separately suspended in 0.3% CMC and administered at a dose of 10 mg/kg body weight per orally for 15 days. During the 15 days treatment, body weight, food intake, and water intake were monitored at regular intervals. Following 15 days of treatment physical parameters (relative organ weight) and biochemical parameters (plasma total protein content, ALT, AST, ALP, and ACP) were studied.
3-OH-DBP (2 mg/kg body weight, 10 mg/kg body weight);
3,8-(OH)2-DBP (10 mg/kg body weight, 50 mg/kg body weight); and

C[C@H](CCC(=O)O)[C@H]1CC[C@H]2[C@@H]3[C@@H](O)C[C@@H]4C[C@H](O)CC[C@]4(C)[C@H]3CC[C@]12C [Ursocol, ursodeoxycholic acid, reference compound]
ACP ([1]; female mice): 29 ± 3.3 U/L | ALP ([1]; female mice): 45 ± 6.9 IU/L | ALT ([1]; female mice): 50 ± 5.6 IU/L | AST ([1]; female mice): 49 ± 6.8 IU/L | Total Protein ([1]; female mice): 6 ± 0.22 g/dL | ACP ([1]; male mice): 22 ± 4.4 ^ U/L | ALP ([1]; male mice): 60 ± 9.9 ^ IU/L | ALT ([1]; male mice): 21 ± 2.6 ^ IU/L | AST ([1]; male mice): 18 ± 3.4 ^ IU/L | Total Protein ([1]; male mice): 6 ± 0.55 g/dL | ACP ([2]; female mice): 2.4 ± 0.47 U/L | ALP ([2]; female mice): 49 ± 6.5 IU/L | ALT ([2]; female mice): 26.63 ± 2.85 IU/L | AST ([2]; female mice): 25.39 ± 4.08 IU/L | Total Protein ([2]; female mice): 5.97 ± 0.53 g/dL | ACP ([2]; male mice): 3.19 ± 0.36 U/L | ALP ([2]; male mice): 86.1 ± 3.73 IU/L | ALT ([2]; male mice): 26.6 ± 1.94 ^ IU/L | AST ([2]; male mice): 24.3 ± 3.84 IU/L | Total Protein ([2]; male mice): 8.83 ± 0.16 g/dL | Relative liver weight ([2]; male mice, alcohol study of Example IV): significantly increased
